This passage reports T/C results from PubChem BioAssay AID288 (DTP/NCI, 2004).

Where “and” joins values, the source holds several entries; their conditions need not be identical. Equal entries are not always repeated. Inconclusive results are not listed.

This assay deals with BDF1 mice, M5076 sarcoma s.c., survival/tumor T/C. Description: NCI In Vivo Anticancer Drug Screen. Data for tumor model Sarcoma M5076 (subcutaneous) in B6D2F1 (BDF1) mice. As to the method: The antitumor activity of compounds was measured in mice bearing transplantable tumors. Survival or tumor size were measured and the results are expressed as the measurement made in the treated group (T) divided by the measurement made in the vehicle treated control group (C). The tumor model used in this assay is Sarcoma M5076 (subcutaneous) in B6D2F1 (BDF1) mice

Regarding `Cc1ncc([N+](=O)[O-])n1CCO`, the T/C (endpoint: median survival time, dose: 750.0 mg/kg/injection, schedule: Q01DX001 (ip), vehicle: saline, higher = longer survival) is 116 % of control; the T/C (endpoint: median survival time, dose: 1000.0 mg/kg/injection, schedule: Q01DX001 (ip), vehicle: saline with Tween-80, higher = longer survival) is 105 % of control and 85 % of control; the T/C (endpoint: median survival time, dose: 1500.0 mg/kg/injection, schedule: Q01DX001 (ip), vehicle: saline, higher = longer survival) is 89 % of control and 90 % of control; the T/C (endpoint: median survival time, dose: 2000.0 mg/kg/injection, schedule: Q01DX001 (ip), vehicle: saline with Tween-80, higher = longer survival) is 91 % of control; the T/C (endpoint: median survival time, dose: 2000.0 mg/kg/injection, schedule: Q01DX001 (ip), vehicle: saline, higher = longer survival) was 87 % of control (2×) and 89 % of control; the T/C (endpoint: median survival time, dose: 2500.0 mg/kg/injection, schedule: Q01DX001 (ip), vehicle: saline with Tween-80, higher = longer survival) is 78 % of control.
For `COCC(O)Cn1ccnc1[N+](=O)[O-]` (stereo not drawn), the T/C by setting is: (endpoint: median survival time, dose: 600.0 mg/kg/injection, schedule: Q04DX003 (ip), vehicle: saline, higher = longer survival) 105 % of control and 106 % of control; (endpoint: median survival time, dose: 668.0 mg/kg/injection, schedule: Q07DX002 (ip), vehicle: saline, higher = longer survival) 97 % of control; (endpoint: median survival time, dose: 1000.0 mg/kg/injection, schedule: Q04DX003 (ip), vehicle: saline, higher = longer survival) 102 % of control; (endpoint: median survival time, dose: 1000.0 mg/kg/injection, schedule: Q07DX002 (ip), vehicle: saline, higher = longer survival) 119 % of control.
`Nc1nc2c(c(=O)[nH]1)N(C=O)C(CNc1ccc(C(=O)N[C@@H](CCC(=O)O)C(=O)O)cc1)CN2` (stereo partly drawn): the T/C runs as follows: (endpoint: median survival time, dose: 50.0 mg/kg/injection, schedule: Q01DX009 (ip), vehicle: sodium bicarbonate, higher = longer survival) 101 % of control; (endpoint: median survival time, dose: 100.0 mg/kg/injection, schedule: Q01DX009 (ip), vehicle: sodium bicarbonate, higher = longer survival) 96 % of control; (endpoint: median survival time, dose: 200.0 mg/kg/injection, schedule: Q01DX009 (ip), vehicle: sodium bicarbonate, higher = longer survival) 101 % of control.
On to `CCC/C=C/C=C/C(=O)OC1/C(=C/C(=O)OC)CC2CC(C(C)O)OC(=O)CC(O)CC3CC(OC(C)=O)C(C)(C)C(O)(CC4C/C(=C/C(=O)OC)CC(/C=C/C(C)(C)C1(O)O2)O4)O3` (stereo not drawn), for which the T/C is, setting by setting: (endpoint: median survival time, dose: 5.0 micrograms/kg/injection, schedule: Q01DX009 (ip), vehicle: saline + Tween-80 + alcohol, higher = longer survival) 100 % of control; (endpoint: median survival time, dose: 5.0 micrograms/kg/injection, schedule: Q01DX009 (ip), vehicle: saline + alcohol, higher = longer survival) 106 % of control; (endpoint: median survival time, dose: 10.0 micrograms/kg/injection, schedule: Q01DX009 (ip), vehicle: saline + Tween-80 + alcohol, higher = longer survival) 97 % of control; (endpoint: median survival time, dose: 10.0 micrograms/kg/injection, schedule: Q01DX009 (ip), vehicle: saline + alcohol, higher = longer survival) 96 % of control; (endpoint: median survival time, dose: 20.0 micrograms/kg/injection, schedule: Q01DX009 (ip), vehicle: saline + Tween-80 + alcohol, higher = longer survival) 111 % of control; (endpoint: median survival time, dose: 20.0 micrograms/kg/injection, schedule: Q01DX009 (ip), vehicle: saline + alcohol, higher = longer survival) 111 % of control. The T/C reads like this: (endpoint: median survival time, dose: 80.0 micrograms/kg/injection, schedule: Q01DX009 (ip), vehicle: saline + Tween-80 + alcohol, higher = longer survival) 103 % of control; (endpoint: median survival time, dose: 80.0 micrograms/kg/injection, schedule: Q01DX009 (ip), vehicle: saline + alcohol, higher = longer survival) 103 % of control; (endpoint: median tumor weight (est.), dose: 5.0 micrograms/kg/injection, schedule: Q01DX009 (ip), vehicle: saline + Tween-80 + alcohol, higher = larger tumour) 102 % of control; (endpoint: median tumor weight (est.), dose: 5.0 micrograms/kg/injection, schedule: Q01DX009 (ip), vehicle: saline + alcohol, higher = larger tumour) 198 % of control; (endpoint: median tumor weight (est.), dose: 10.0 micrograms/kg/injection, schedule: Q01DX009 (ip), vehicle: saline + Tween-80 + alcohol, higher = larger tumour) 89 % of control; (endpoint: median tumor weight (est.), dose: 10.0 micrograms/kg/injection, schedule: Q01DX009 (ip), vehicle: saline + alcohol, higher = larger tumour) 107 % of control. The T/C was 83 % of control (endpoint: median tumor weight (est.), dose: 20.0 micrograms/kg/injection, schedule: Q01DX009 (ip), vehicle: saline + Tween-80 + alcohol, higher = larger tumour); 10 % of control (endpoint: median tumor weight (est.), dose: 20.0 micrograms/kg/injection, schedule: Q01DX009 (ip), vehicle: saline + alcohol, higher = larger tumour); 11 % of control (endpoint: median tumor weight (est.), dose: 40.0 micrograms/kg/injection, schedule: Q01DX009 (ip), vehicle: saline + Tween-80 + alcohol, higher = larger tumour).
Turning to `CN(C)/N=N/c1nc[nH]c1C(N)=O`, the T/C runs as follows: (endpoint: median survival time, dose: 13.5 mg/kg/injection, schedule: Q04DX006 (ip), vehicle: saline with Tween-80, higher = longer survival) 96 % of control; (endpoint: median survival time, dose: 27.0 mg/kg/injection, schedule: Q02DX030 (ip), vehicle: saline with Tween-80, higher = longer survival) 177 % of control; (endpoint: median survival time, dose: 27.0 mg/kg/injection, schedule: Q04DX006 (ip), vehicle: saline with Tween-80, higher = longer survival) 122 % of control; (endpoint: median survival time, dose: 54.0 mg/kg/injection, schedule: Q02DX030 (ip), vehicle: saline with Tween-80, higher = longer survival) 191 % of control.
On to `CC1(C)OC(C)(C)c2c1nnc(-c1cccc([N+](=O)[O-])c1)[n+]2[O-]`, for which the T/C by setting is: (endpoint: median survival time, dose: 50.0 mg/kg/injection, schedule: Q01DX009 (ip), vehicle: saline with Tween-80, higher = longer survival) 110 % of control; (endpoint: median survival time, dose: 100.0 mg/kg/injection, schedule: Q01DX009 (ip), vehicle: saline with Tween-80, higher = longer survival) 113 % of control; (endpoint: median survival time, dose: 200.0 mg/kg/injection, schedule: Q01DX009 (ip), vehicle: saline with Tween-80, higher = longer survival) 113 % of control; (endpoint: median tumor weight (est.), dose: 50.0 mg/kg/injection, schedule: Q01DX009 (ip), vehicle: saline with Tween-80, higher = larger tumour) 91 % of control; (endpoint: median tumor weight (est.), dose: 100.0 mg/kg/injection, schedule: Q01DX009 (ip), vehicle: saline with Tween-80, higher = larger tumour) 119 % of control; (endpoint: median tumor weight (est.), dose: 200.0 mg/kg/injection, schedule: Q01DX009 (ip), vehicle: saline with Tween-80, higher = larger tumour) 97 % of control.
For `Nc1n[n+](-c2ccc(Cl)cc2)no1`, the T/C runs as follows: (endpoint: median survival time, dose: 25.0 mg/kg/injection, schedule: Q04DX003 (ip), vehicle: water, higher = longer survival) 99 % of control; (endpoint: median survival time, dose: 50.0 mg/kg/injection, schedule: Q04DX003 (ip), vehicle: water, higher = longer survival) 100 % of control.
Consider `C1CN1c1nc(N2CC2)nc(N2CC2)n1`, for which the T/C (endpoint: mean tumor weight, dose: 0.1 mg/kg/injection, schedule: Q02DX011 (ip), vehicle: Klucel (hydroxypropylcellulose) (HPC), higher = larger tumour) is 76 % of control; the T/C (endpoint: mean tumor weight, dose: 0.2 mg/kg/injection, schedule: Q02DX011 (ip), vehicle: Klucel (hydroxypropylcellulose) (HPC), higher = larger tumour) was 25 % of control; the T/C (endpoint: mean tumor weight, dose: 0.4 mg/kg/injection, schedule: Q02DX011 (ip), vehicle: Klucel (hydroxypropylcellulose) (HPC), higher = larger tumour) is 8 % of control; the T/C (endpoint: median survival time, dose: 0.06 mg/kg/injection, schedule: Q02DX011 (ip), vehicle: saline, higher = longer survival) is 100 % of control; the T/C (endpoint: median survival time, dose: 0.13 mg/kg/injection, schedule: Q02DX011 (ip), vehicle: saline, higher = longer survival) was 113 % of control; the T/C (endpoint: median survival time, dose: 0.25 mg/kg/injection, schedule: Q02DX011 (ip), vehicle: saline, higher = longer survival) is 100 % of control. In addition, the T/C (endpoint: median survival time, dose: 1.0 mg/kg/injection, schedule: Q02DX011 (ip), vehicle: saline, higher = longer survival) is 191 % of control.
On to `O=C(O)C1(C(=O)O)CCC1.[NH2-].[NH2-].[Pt+2]`, for which the T/C is 98 % of control (endpoint: median survival time, dose: 6.25 mg/kg/injection, schedule: Q02DX030 (ip), vehicle: water, higher = longer survival); 100 % of control (endpoint: median survival time, dose: 17.0 mg/kg/injection, schedule: Q01DX009 (ip), vehicle: other, higher = longer survival); 114 % of control (endpoint: median survival time, dose: 25.0 mg/kg/injection, schedule: Q01DX009 (ip), vehicle: other, higher = longer survival); 165 % of control (endpoint: median survival time, dose: 25.0 mg/kg/injection, schedule: Q02DX030 (ip), vehicle: water, higher = longer survival); 162 % of control (endpoint: median survival time, dose: 25.92 mg/kg/injection, schedule: Q04DX005 (ip), vehicle: water, higher = longer survival); 107 % of control (endpoint: median survival time, dose: 38.0 mg/kg/injection, schedule: Q01DX009 (ip), vehicle: other, higher = longer survival). Further, the T/C is 169 % of control (endpoint: median survival time, dose: 43.2 mg/kg/injection, schedule: Q04DX005 (ip), vehicle: water, higher = longer survival); 94 % of control (endpoint: median survival time, dose: 50.0 mg/kg/injection, schedule: Q02DX030 (ip), vehicle: water, higher = longer survival); 196 % of control (endpoint: median survival time, dose: 72.0 mg/kg/injection, schedule: Q04DX005 (ip), vehicle: water, higher = longer survival); 22 % of control (endpoint: median tumor weight (est.), dose: 15.6 mg/kg/injection, schedule: Q04DX005 (ip), vehicle: water, higher = larger tumour); 20 % of control (endpoint: median tumor weight (est.), dose: 25.92 mg/kg/injection, schedule: Q04DX005 (ip), vehicle: water, higher = larger tumour).
